Experimental findings from ChEMBL document CHEMBL4371033, “Highly Potent and Selective Plasmin Inhibitors Based on the Sunflower Trypsin Inhibitor-1 Scaffold Attenuate Fibrinolysis in Plasma” (J Med Chem, 2019) are described below.

In test [1] the target is T1, Plasma kallikrein (Homo sapiens, UniProt P03952). Nature of the test: Inhibition of plasma KLK (unknown origin) using Ac-NLTR-pNA as substrate after 30 mins relative to untreated control.
For test [2], the target named is T2, Prothrombin (Homo sapiens, UniProt P00734). Nature of the test: Inhibition of human thrombin using Ac-ATPR-pNA as substrate after 30 mins relative to untreated control.
Test [3] deals with T3, Coagulation factor XI (Homo sapiens, UniProt P03951). The test is described as follows: Inhibition of activated beta-factor 11 (unknown origin) using Bz-FVRpNA as substrate after 30 mins relative to untreated control.
A further test deals with Coagulation factor IX (Homo sapiens, UniProt P00740). Nature of the test: Inhibition of activated beta-factor 9 (unknown origin) using Boc-QGR-MCA as substrate after 30 mins relative to untreated control.
For the next test, the target named is T4, Serine protease 1 (Bos taurus, UniProt P00760).
T4 sequence (P00760 whole entry): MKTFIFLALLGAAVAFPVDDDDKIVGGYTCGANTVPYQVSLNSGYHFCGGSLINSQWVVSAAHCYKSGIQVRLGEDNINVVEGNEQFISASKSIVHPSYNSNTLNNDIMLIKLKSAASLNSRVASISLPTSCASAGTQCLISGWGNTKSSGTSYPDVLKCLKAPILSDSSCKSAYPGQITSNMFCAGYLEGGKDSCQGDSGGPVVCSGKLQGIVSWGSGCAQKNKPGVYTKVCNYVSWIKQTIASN
The test is described as follows: Inhibition of bovine cationic trypsin using Bz-FVR-pNA as substrate after 30 mins.

The target in another test is Plasminogen (Homo sapiens, UniProt P00747). Nature of the test: Inhibition of human plasmin using Ac-RM(O2)YR-pNA as substrate after 30 mins.
The target of test [4] is Tissue-type plasminogen activator (Homo sapiens, UniProt P00750). Nature of the test: Inhibition of tPA (unknown origin) using Z-Pyr-Gly-Arg-MCA as substrate after 30 mins relative to untreated control.
The target of another test is Coagulation factor X (Homo sapiens, UniProt P00742). The test is described as follows: Inhibition of activated factor 10 (unknown origin) using Ac-QRSR-pNA as substrate after 30 mins relative to untreated control.
Test [5] addresses Urokinase-type plasminogen activator (Homo sapiens, UniProt P00749). The test is described as follows: Inhibition of uPA (unknown origin) using Z-Pyr-Gly-Arg-MCA as substrate after 30 mins relative to untreated control.
Test [6] concerns the target T5, Suppressor of tumorigenicity 14 protein (Homo sapiens, UniProt Q9Y5Y6).
T5 sequence (Q9Y5Y6 whole entry): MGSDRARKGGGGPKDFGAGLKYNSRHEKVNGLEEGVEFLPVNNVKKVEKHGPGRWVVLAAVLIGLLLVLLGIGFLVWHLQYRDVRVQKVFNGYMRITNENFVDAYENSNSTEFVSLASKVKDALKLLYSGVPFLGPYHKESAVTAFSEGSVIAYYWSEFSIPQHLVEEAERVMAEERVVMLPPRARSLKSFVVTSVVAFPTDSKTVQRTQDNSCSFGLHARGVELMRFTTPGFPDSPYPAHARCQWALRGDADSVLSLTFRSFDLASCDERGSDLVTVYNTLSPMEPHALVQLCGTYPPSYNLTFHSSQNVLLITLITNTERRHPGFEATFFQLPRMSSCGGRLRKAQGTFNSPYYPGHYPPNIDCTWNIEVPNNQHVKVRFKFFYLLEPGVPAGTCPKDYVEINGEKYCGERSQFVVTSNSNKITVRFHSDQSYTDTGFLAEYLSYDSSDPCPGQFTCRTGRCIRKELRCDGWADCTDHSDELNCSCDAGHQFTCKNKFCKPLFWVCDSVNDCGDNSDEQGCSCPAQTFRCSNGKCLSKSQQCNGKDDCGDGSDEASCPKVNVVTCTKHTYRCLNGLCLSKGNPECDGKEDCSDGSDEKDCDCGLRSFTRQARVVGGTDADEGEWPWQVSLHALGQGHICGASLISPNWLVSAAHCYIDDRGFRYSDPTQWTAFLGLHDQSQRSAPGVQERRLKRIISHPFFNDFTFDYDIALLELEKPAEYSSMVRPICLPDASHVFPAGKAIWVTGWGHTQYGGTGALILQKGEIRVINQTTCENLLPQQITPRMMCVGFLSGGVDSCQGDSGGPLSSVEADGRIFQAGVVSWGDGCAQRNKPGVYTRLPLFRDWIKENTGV
The test is described as follows: Inhibition of matriptase (unknown origin) using Boc-QAR-MCA as substrate after 30 mins relative to untreated control.

The target of the next test is T6, Cathepsin G (Homo sapiens, UniProt P08311).
T6 sequence (P08311 whole entry): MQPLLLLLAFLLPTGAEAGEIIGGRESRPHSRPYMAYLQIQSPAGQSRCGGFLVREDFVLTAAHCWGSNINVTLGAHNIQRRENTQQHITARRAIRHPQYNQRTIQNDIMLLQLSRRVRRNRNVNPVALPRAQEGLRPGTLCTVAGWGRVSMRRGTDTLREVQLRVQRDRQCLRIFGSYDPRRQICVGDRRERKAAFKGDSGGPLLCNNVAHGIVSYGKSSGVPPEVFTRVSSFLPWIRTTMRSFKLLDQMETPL
The test is described as follows: Inhibition of human cathepsin G using Suc-AAPF-MCA as substrate after 30 mins.

The target of test [7] is T7, Coagulation factor XII (Homo sapiens, UniProt P00748).
T7 sequence (P00748 whole entry): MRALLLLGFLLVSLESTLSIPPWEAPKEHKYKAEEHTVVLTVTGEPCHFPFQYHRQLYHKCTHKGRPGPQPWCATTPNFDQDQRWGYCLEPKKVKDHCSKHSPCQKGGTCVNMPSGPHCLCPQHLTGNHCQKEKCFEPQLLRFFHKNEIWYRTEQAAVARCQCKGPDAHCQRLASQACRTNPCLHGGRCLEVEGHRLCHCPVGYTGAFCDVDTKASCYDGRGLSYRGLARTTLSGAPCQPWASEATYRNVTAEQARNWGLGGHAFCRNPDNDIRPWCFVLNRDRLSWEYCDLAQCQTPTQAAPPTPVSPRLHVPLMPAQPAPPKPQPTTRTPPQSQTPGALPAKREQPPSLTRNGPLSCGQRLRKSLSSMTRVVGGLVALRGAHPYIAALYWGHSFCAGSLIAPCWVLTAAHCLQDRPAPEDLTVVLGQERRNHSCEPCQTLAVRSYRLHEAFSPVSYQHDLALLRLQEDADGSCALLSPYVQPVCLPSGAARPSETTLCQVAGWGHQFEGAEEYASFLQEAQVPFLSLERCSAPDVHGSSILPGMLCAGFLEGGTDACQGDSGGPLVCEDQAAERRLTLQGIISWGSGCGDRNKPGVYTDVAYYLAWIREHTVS
Nature of the test: Inhibition of activated beta-factor 12 (unknown origin) using Ac-QRFR-pNA as substrate after 30 mins relative to untreated control.

The target in test [8] is T3, Coagulation factor XI. The test is described as follows: Inhibition of activated beta-factor 11 (unknown origin) using Bz-FVRpNA as substrate after 30 mins.
Test [9] addresses T5, Suppressor of tumorigenicity 14 protein. The test is described as follows: Inhibition of matriptase (unknown origin) using Boc-QAR-MCA as substrate after 30 mins.
The target of test [10] is T1, Plasma kallikrein. Nature of the test: Inhibition of plasma KLK (unknown origin) using Ac-NLTR-pNA as substrate after 30 mins.
The target in test [11] is T2, Prothrombin. Nature of the test: Inhibition of human thrombin using Ac-ATPR-pNA as substrate after 30 mins.
Test [12] deals with T7, Coagulation factor XII. Nature of the test: Inhibition of human beta-factor 12a using Ac-QRFR-pNA as substrate after 30 mins.
Test [13] addresses Trypsin (Sus scrofa) (UniProt P00761). The test is described as follows: Inhibition of porcine trypsin assessed as dissociation rate constant using peptide-pNA as substrate.
A short description of test [14]: Inhibition of bovine trypsin pre-incubated for 60 mins before tos-GPR-AMC substrate addition. Also noted: species or system Bos taurus.
Test [15] deals with T5, Suppressor of tumorigenicity 14 protein. The test is described as follows: Inhibition of recombinant human matriptase catalytic domain pre-incubated for 60 mins before Boc QAR-AMC substrate addition.
Test [16] has as its target Trypsin (Sus scrofa) (UniProt P00761). The test is described as follows: Inhibition of porcine trypsin assessed as association rate constant using peptide-pNA as substrate.

Residues, ends and D or L forms follow the SMILES beside them. Bounds are passed on as bounds.

T3 sequence (P03951 19-387 limits assumed): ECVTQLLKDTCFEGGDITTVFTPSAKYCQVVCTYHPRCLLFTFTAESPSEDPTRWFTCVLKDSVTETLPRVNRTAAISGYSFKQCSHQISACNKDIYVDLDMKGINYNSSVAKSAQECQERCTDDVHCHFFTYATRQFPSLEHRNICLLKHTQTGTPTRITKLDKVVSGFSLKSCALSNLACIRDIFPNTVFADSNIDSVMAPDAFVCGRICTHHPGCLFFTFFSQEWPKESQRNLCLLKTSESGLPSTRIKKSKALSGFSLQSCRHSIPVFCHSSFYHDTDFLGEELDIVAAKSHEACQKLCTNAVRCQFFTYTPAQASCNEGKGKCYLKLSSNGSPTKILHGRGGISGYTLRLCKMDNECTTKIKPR
T3 sequence (P03951 388-625 limits assumed): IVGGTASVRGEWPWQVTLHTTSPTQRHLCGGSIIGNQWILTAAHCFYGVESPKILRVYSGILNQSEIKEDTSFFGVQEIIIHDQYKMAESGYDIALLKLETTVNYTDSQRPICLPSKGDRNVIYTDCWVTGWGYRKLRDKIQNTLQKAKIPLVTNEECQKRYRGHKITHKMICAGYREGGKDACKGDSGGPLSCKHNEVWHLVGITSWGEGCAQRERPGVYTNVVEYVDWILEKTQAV
Plasminogen, sequence (P00747 97-580 limits assumed): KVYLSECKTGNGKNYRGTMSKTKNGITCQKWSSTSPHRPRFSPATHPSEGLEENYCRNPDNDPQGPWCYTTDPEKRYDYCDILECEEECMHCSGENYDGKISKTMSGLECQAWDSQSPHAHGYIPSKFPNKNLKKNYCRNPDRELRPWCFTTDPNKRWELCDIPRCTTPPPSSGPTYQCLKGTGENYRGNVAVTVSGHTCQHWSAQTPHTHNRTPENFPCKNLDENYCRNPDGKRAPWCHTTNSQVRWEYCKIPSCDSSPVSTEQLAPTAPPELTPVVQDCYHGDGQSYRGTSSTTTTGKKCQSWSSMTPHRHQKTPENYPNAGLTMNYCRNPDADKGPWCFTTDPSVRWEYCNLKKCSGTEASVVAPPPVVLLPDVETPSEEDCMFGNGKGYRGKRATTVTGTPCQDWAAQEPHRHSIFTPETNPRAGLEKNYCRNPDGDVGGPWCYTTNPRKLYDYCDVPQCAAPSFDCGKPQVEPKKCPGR
Plasminogen, sequence (P00747 581-810 limits assumed): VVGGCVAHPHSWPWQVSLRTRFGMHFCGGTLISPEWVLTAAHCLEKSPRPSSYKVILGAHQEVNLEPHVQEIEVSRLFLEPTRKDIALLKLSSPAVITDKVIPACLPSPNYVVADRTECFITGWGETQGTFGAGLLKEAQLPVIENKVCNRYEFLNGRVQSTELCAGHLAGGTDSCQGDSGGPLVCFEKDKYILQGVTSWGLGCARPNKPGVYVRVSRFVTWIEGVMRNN
T1 sequence (P03952 20-390 limits assumed): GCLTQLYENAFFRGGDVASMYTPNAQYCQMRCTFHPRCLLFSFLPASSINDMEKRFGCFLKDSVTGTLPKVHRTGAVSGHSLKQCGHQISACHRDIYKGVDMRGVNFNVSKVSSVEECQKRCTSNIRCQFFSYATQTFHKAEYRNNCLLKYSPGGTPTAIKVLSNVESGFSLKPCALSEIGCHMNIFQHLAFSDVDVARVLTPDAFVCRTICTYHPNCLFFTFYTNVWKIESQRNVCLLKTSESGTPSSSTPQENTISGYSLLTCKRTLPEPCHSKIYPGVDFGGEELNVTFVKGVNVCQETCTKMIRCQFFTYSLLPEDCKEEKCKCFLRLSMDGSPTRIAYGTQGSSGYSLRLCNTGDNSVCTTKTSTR
T1 sequence (P03952 391-638 limits assumed): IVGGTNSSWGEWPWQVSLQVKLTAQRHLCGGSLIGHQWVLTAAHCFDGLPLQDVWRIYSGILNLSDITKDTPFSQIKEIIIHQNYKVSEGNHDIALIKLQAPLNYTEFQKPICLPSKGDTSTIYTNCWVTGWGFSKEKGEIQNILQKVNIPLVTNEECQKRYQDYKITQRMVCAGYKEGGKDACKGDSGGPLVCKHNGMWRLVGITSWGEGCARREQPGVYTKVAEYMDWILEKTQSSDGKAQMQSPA
Coagulation factor IX, sequence (P00740 47-191 limits assumed): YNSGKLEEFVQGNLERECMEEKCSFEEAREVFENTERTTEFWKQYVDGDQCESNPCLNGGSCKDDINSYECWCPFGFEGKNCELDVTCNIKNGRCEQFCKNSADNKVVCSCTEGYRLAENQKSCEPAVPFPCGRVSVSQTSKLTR
Coagulation factor IX, sequence (P00740 227-461 limits assumed): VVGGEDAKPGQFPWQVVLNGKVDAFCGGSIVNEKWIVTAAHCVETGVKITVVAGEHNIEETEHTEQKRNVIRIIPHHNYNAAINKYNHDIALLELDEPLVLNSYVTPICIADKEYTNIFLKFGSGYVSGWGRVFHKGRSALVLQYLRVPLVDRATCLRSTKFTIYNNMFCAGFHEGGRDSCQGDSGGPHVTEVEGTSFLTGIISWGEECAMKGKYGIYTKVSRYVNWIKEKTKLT
Coagulation factor X, sequence (P00742 41-179 limits assumed): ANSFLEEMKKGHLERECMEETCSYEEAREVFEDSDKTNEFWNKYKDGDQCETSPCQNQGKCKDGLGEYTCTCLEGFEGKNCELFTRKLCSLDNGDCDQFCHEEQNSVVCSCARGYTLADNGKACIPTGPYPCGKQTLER
Coagulation factor X, sequence (P00742 235-488 limits assumed): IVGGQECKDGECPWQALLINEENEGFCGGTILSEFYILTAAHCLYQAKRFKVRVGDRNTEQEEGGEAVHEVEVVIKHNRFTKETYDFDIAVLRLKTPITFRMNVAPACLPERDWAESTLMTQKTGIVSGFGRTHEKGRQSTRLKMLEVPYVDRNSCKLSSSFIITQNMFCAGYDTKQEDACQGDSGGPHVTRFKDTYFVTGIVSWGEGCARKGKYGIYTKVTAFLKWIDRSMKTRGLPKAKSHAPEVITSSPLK
Trypsin (Sus scrofa), sequence (P00761 whole entry): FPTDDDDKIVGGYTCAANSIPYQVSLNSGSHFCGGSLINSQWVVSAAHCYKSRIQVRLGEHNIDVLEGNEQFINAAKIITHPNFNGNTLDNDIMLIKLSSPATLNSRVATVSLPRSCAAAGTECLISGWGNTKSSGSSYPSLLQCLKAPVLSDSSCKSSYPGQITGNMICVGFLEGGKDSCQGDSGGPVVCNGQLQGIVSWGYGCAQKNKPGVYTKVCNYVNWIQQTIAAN
Tissue-type plasminogen activator, sequence (P00750 whole entry): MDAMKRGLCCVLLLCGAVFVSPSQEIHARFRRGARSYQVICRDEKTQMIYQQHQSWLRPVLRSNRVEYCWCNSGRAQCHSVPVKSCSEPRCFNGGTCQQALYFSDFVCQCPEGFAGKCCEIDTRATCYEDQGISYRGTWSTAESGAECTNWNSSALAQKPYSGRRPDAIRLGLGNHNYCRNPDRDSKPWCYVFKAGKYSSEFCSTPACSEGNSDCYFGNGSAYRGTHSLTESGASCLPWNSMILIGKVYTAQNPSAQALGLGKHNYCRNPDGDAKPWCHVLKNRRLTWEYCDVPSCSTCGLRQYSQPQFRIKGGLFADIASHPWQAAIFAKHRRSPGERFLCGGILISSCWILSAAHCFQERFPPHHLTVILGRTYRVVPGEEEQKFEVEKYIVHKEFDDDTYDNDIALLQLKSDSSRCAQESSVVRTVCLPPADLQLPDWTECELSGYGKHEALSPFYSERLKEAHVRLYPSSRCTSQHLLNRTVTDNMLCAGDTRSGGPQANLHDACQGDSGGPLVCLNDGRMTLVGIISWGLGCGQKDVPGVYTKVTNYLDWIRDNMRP

One may read the Ki as the dissociation constant of the complex between target and ligand, obtained from inhibition or displacement. Turning to `CC[C@H](C)[C@@H]1NC(=O)[C@@H]2CCCN2C(=O)[C@@H]2CCCN2C(=O)[C@H](CCCNC(=N)N)NC(=O)[C@H](CO)NC(=O)[C@H](CCCCN)NC(=O)[C@H](Cc2ccc(O)cc2)NC(=O)[C@@H]2CSSC[C@H](NC1=O)C(=O)N[C@@H](Cc1ccccc1)C(=O)N1CCC[C@H]1C(=O)N[C@@H](CC(=O)O)C(=O)NCC(=O)N[C@@H](CCCNC(=N)N)C(=O)N2` (HELM PEPTIDE1{C.F.P.D.G.R.C.Y.K.S.R.P.P.I}$PEPTIDE1,PEPTIDE1,1:R3-7:R3|PEPTIDE1,PEPTIDE1,1:R1-14:R2$$$V2.0), the Ki on Plasma kallikrein [1] is above 50 µM; on Prothrombin [2] it was above 50 µM; on Coagulation factor XI [3] it was above 50 µM; at Coagulation factor IX, above 50 µM; on Serine protease 1, 0.028 µM; at Plasminogen it was 0.041 nM. Moreover, the Ki is above 50 µM in test [4]; above 50 µM on Coagulation factor X; above 50 µM in [5]; above 50 µM in test [6]; 13 µM on Cathepsin G; above 50 µM on Coagulation factor XII [7].

For `CC[C@H](C)[C@@H]1NC(=O)[C@@H]2CCCN2C(=O)[C@@H]2CCCN2C(=O)[C@H]([C@@H](C)CC)NC(=O)[C@H](CO)NC(=O)[C@H](CCCCN)NC(=O)[C@H](Cc2ccc(O)cc2)NC(=O)[C@@H]2CSSC[C@H](NC1=O)C(=O)N[C@@H](Cc1ccccc1)C(=O)N1CCC[C@H]1C(=O)N[C@@H](CC(=O)O)C(=O)NCC(=O)N[C@@H](CCCNC(=N)N)C(=O)N2` (HELM PEPTIDE1{C.F.P.D.G.R.C.Y.K.S.I.P.P.I}$PEPTIDE1,PEPTIDE1,1:R3-7:R3|PEPTIDE1,PEPTIDE1,1:R1-14:R2$$$V2.0), the Ki on Prothrombin [2] was 250 µM; on Coagulation factor XI [8] it was 13 µM; at Coagulation factor IX, above 50 µM; on Serine protease 1, 0.011 µM; on Plasminogen it was 0.14 nM; in test [4] it was above 50 µM. In addition, the Ki on Coagulation factor X is above 50 µM; in test [9], 480 µM; in test [5], above 50 µM; on Cathepsin G, 7.8 µM; on Coagulation factor XII [7] it was above 50 µM; on Plasma kallikrein [10], 32 µM. In addition, the affinity on Prothrombin [11] corresponds to a Ki of 250 µM.

As to `CC[C@H](C)[C@@H]1NC(=O)[C@@H]2CCCN2C(=O)[C@@H]2CCCN2C(=O)[C@H]([C@@H](C)CC)NC(=O)[C@H](CO)NC(=O)[C@H](CCCCN)NC(=O)[C@H]([C@@H](C)O)NC(=O)[C@@H]2CSSC[C@H](NC1=O)C(=O)N[C@@H](Cc1ccccc1)C(=O)N1CCC[C@H]1C(=O)N[C@@H](CC(=O)O)C(=O)NCC(=O)N[C@@H](CCCNC(=N)N)C(=O)N2`, the figures for the Ki (on Coagulation factor XII [12]; in test [14]; in test [15]) were 130 µM, 0.017 nM and 0.2 µM, respectively. Also, the K on Trypsin (Sus scrofa) [13] turned out to be 0.5 ×10⁻⁴ /s; on Trypsin (Sus scrofa) [16], 0.2 ×10⁷ /M/s.
